Measured values published in patent US20040162221A1, “Pyrazole derivatives and herbicides containing the same” (IDEMITSU KOSAN CO., LTD., priority 1998, published 2004).

Legend:
[1] = system: redroot pigweed; test: Upland post-emergence treatment test, redroot pigweed; format: in vivo, redroot pigweed (Amaranthus retroflexus); conditions: post-emergence spray at 3-4 leaf stage, 80 g/ha, 30th day after treatment, greenhouse
From the text: (§1) 97 Parts by weight of talc (trade name: Zeaklite, supplied by Zeaklite Industry) as a carrier, 1.5 parts by weight of alkylarylsulfonic acid salt (trade name: Neoplex, supplied by Kao-Atlas K.K.) as a surfactant and 1.5 parts by weight of a nonionic and anionic surfactant (trade names Sorpol 800A, supplied by Toho Chemical Co., Ltd.) were uniformly pulverized and mixed to prepare a carrier for a wettable powder.
(§2) 90 Parts by weight of the above carrier for a wettable powder and 10 parts by weight of one of the compounds of the present invention were uniformly pulverized and mixed to obtain herbicides. Further, in Comparative Herbicide Examples, comparative herbicides were also prepared from the following compounds (A) and (B) in the same manner.
(§3) Herbicidal efficacy and phytotoxicity to crops were determined on the basis of the ratio of remaining plant weight to plant weight in non-treated plot=(remaining plant weight in treated plot/plant weight in non-treated-plot)×100. The ratings were applied to the following biological tests.
(§4) Seeds of weeds velvetleaf, redroot pigweed, common ragweed, green foxtail and large crabgrass and seeds of corn were sown in 1/5,000-are Wagner pots filled with upland soil, and covered with upland soil. The seeds were grown in a greenhouse, and at the stage of 3˜4 leaves of these plants, a predetermined amount of the herbicide prepared in the above (1) was suspended in water, and the suspension was uniformly sprayed onto leaf and stalk portions at a rate of 2,000 liters/hectare. Then, the plants were grown in the greenhouse, and on the 30th day after the treatment, the herbicide was evaluated for herbicidal efficacy and phytotoxicity to the corn on the basis of the ratings shown in (2).

[2] = system: corn; test: Upland post-emergence treatment test, phytotoxicity to corn; format: in vivo; conditions: post-emergence spray at 3-4 leaf stage, 80 g/ha, 30th day after treatment, greenhouse
From the text: as §1, §2, §3, §4

[3] = system: green foxtail; test: Upland pre-emergence treatment test, green foxtail; format: in vivo, green foxtail (Setaria viridis); conditions: pre-emergence soil surface spray, 80 g/ha, 20th day after treatment, greenhouse
From the text: as §1, §2, §3
(§5) Seeds of weeds such as velvetleaf, common lambsquaters, redroot pigweed, common ragweed, green foxtail and large crabgrass and seeds of corn were sown in 1/5,000-are Wagner pots filled with upland soil, and covered with upland soil. Then, a predetermined amount of the herbicide prepared in the above (1) was suspended in water, and the suspension was uniformly sprayed onto the soil surface at a rate of 2,000 liters/hectare. Then, the seeds were grown in a greenhouse, and on the 20th day after the treatment, the herbicide was evaluated for herbicidal efficacy and phytotoxicity to corn on the basis of the ratings shown in (2).

[4] = system: velvetleaf; test: Upland post-emergence treatment test, velvetleaf; format: in vivo, velvetleaf (Abutilon theophrasti); conditions: post-emergence spray at 3-4 leaf stage, 80 g/ha, 30th day after treatment, greenhouse
From the text: as §1, §2, §3, §4

[5] = system: large crabgrass; test: Upland pre-emergence treatment test, large crabgrass; format: in vivo; conditions: pre-emergence soil surface spray, 80 g/ha, 20th day after treatment, greenhouse
From the text: as §1, §2, §3, §5

[6] = system: common ragweed; test: Upland pre-emergence treatment test, common ragweed; format: in vivo, common ragweed (Ambrosia artemisilfolia); conditions: pre-emergence soil surface spray, 80 g/ha, 20th day after treatment, greenhouse
From the text: as §1, §2, §3, §5

[7] = system: common lambsquaters; test: Upland pre-emergence treatment test, common lambsquaters; format: in vivo, common lambsquaters (Chenopodium album); conditions: pre-emergence soil surface spray, 80 g/ha, 20th day after treatment, greenhouse
From the text: as §1, §2, §3, §5

[8] = system: corn; test: Upland pre-emergence treatment test, phytotoxicity to corn; format: in vivo; conditions: pre-emergence soil surface spray, 80 g/ha, 20th day after treatment, greenhouse
From the text: as §1, §2, §3, §5

[9] = system: large crabgrass; test: Upland post-emergence treatment test, large crabgrass; format: in vivo; conditions: post-emergence spray at 3-4 leaf stage, 80 g/ha, 30th day after treatment, greenhouse
From the text: as §1, §2, §3, §4

[10] = system: redroot pigweed; test: Upland pre-emergence treatment test, redroot pigweed; format: in vivo, redroot pigweed (Amaranthus retroflexus); conditions: pre-emergence soil surface spray, 80 g/ha, 20th day after treatment, greenhouse
From the text: as §1, §2, §3, §5

[11] = system: green foxtail; test: Upland post-emergence treatment test, green foxtail; format: in vivo, green foxtail (Setaria viridis); conditions: post-emergence spray at 3-4 leaf stage, 80 g/ha, 30th day after treatment, greenhouse
From the text: as §1, §2, §3, §4

[12] = system: velvetleaf; test: Upland pre-emergence treatment test, velvetleaf; format: in vivo, velvetleaf (Abutilon theophrasti); conditions: pre-emergence soil surface spray, 80 g/ha, 20th day after treatment, greenhouse
From the text: as §1, §2, §3, §5

[13] = system: common ragweed; test: Upland post-emergence treatment test, common ragweed; format: in vivo, common ragweed (Ambrosia artemisilfolia); conditions: post-emergence spray at 3-4 leaf stage, 80 g/ha, 30th day after treatment, greenhouse
From the text: as §1, §2, §3, §4
Further: ranges in brackets are in %.

Compound	Herbicidal Efficacy CC = Redroot Pigweed [1]	Phytotoxicity Corn [2]	Herbicidal Efficacy EE = Green foxtail [3]	Herbicidal Efficacy AA = Velvetleaf [4]	Herbicidal Efficacy FF = Large crabgrass [5]	Herbicidal Efficacy DD = Common ragweed [6]	Herbicidal Efficacy BB = Common lambsquaters [7]	Phytotoxicity Corn [8]	Herbicidal Efficacy FF = Large crabgrass [9]	Herbicidal Efficacy CC = Rough Pigweed [10]	Herbicidal Efficacy EE = Green foxtail [11]	Herbicidal Efficacy AA = Velvetleaf [12]	Herbicidal Efficacy DD = Common ragweed [13]
Cc1c(C(=O)c2cnn(C)c2O)ccc2c1C(C)(C)CS2(=O)=O [Compound 1, 5-(1′-methyl-5′-hydroxypyrazol-4′-yl)carbonyl-3,3,4-trimethyl-2,3-dihydrobenzothiophene-1,1-dioxide]	5 (0)	− (100)	5 (0)	5 (0)	5 (0)	5 (0)	5 (0)	− (100)	5 (0)	5 (0)	5 (0)	5 (0)	5 (0)
Cc1c(C(=O)c2cnn(C)c2OS(C)(=O)=O)ccc2c1C(C)(C)CS2(=O)=O [Compound 2]	5 (0)	− (100)	5 (0)	5 (0)	5 (0)	5 (0)	5 (0)	− (100)	5 (0)	5 (0)	5 (0)	5 (0)	5 (0)
CCS(=O)(=O)Oc1c(C(=O)c2ccc3c(c2C)C(C)(C)CS3(=O)=O)cnn1C [Compound 3]	5 (0)		5 (0)	5 (0)	5 (0)	5 (0)	5 (0)		5 (0)	5 (0)	5 (0)	5 (0)	5 (0)
CCCS(=O)(=O)Oc1c(C(=O)c2ccc3c(c2C)C(C)(C)CS3(=O)=O)cnn1C [Compound 4, 5-(1′-methyl-5′-n-propanesulfonyloxypyrazol-4′-yl)carbonyl-3,3,4-trimethyl-2,3-dihydrobenzothiophene-1,1-dioxide]	5 (0)	− (100)	5 (0)	5 (0)	5 (0)	5 (0)	5 (0)	− (100)	5 (0)	5 (0)	5 (0)	5 (0)	5 (0)
Cc1ccc(S(=O)(=O)Oc2c(C(=O)c3ccc4c(c3C)C(C)(C)CS4(=O)=O)cnn2C)cc1 [Compound 18]	5 (0)	− (100)	5 (0)	5 (0)	5 (0)	4 (1-20)	5 (0)	− (100)	5 (0)	5 (0)	5 (0)	5 (0)	5 (0)
CCC(=O)Oc1c(C(=O)c2ccc3c(c2C)C(C)(C)CS3(=O)=O)cnn1C [Compound 30, 5-(1′-methyl-5′-n-propionyloxypyrazol-4′-yl)carbonyl-3,3,4-trimethyl-2,3-dihydrobenzothiophene-1,1-dioxide]			5 (0)		5 (0)	5 (0)	5 (0)	− (100)		5 (0)		4 (1-20)	
Cc1c(C(=O)c2cnn(C)c2OC(=O)C2CCCCC2)ccc2c1C(C)(C)CS2(=O)=O [Compound 37]	5 (0)	− (100)	5 (0)	5 (0)	5 (0)	5 (0)	5 (0)	− (100)	5 (0)	5 (0)	5 (0)	5 (0)	5 (0)
Cc1c(C(=O)c2cnn(C)c2OC(=O)c2ccccc2)ccc2c1C(C)(C)CS2(=O)=O [Compound 39]	5 (0)	− (100)	5 (0)	5 (0)	5 (0)	5 (0)	5 (0)	− (100)	5 (0)	5 (0)	5 (0)	5 (0)	5 (0)
Cc1c(C(=O)c2cnn(C)c2OCC(=O)c2ccccc2)ccc2c1C(C)(C)CS2(=O)=O [Compound 49, 5-(1′-methyl-5′-phenacyloxypyrazol-4′-yl)carbonyl-3,3,4-trimethyl-2,3-dihydrobenzothiophene-1,1-dioxide]	5 (0)	− (100)	5 (0)	5 (0)	5 (0)	5 (0)	5 (0)	− (100)	5 (0)	5 (0)	5 (0)	5 (0)	5 (0)
CCN(CC)CC.Cc1c(C(=O)c2cnn(C)c2O)ccc2c1C(C)(C)CS2(=O)=O [Compound 50, 5-(1′-methyl-5′-hydroxypyrazol-4′-yl)carbonyl-3,3,4-trimethyl-2,3-dihydrobenzothiophene-1,1-dioxide triethylamine salt]	5 (0)	− (100)	5 (0)	5 (0)	5 (0)	4 (1-20)	5 (0)	− (100)	5 (0)	5 (0)	5 (0)	5 (0)	5 (0)
